In paper PMC6593224, “Validation and Invalidation of Chemical Probes for the Human N-myristoyltransferases” (Cell Chemical Biology, 2019):
Entries after “also recorded” stand apart in the source; their conditions may differ. Like-named read-outs stand apart in the source and are kept apart here.

Assays:
[1] = system: N-myristoylated proteome (NMT substrates); assay: Quantitative chemical proteomics of YnMyr-tagged proteins; assay type: cell-based, human; conditions: MDA-MB-231 (n = 75)
Source text: HeLa and MDA-MB-231 cells were exposed (in triplicate) to 1–5, in a setup identical to that used for in-gel analyses (Figure 2A), with the exception that YnMyr-tagged proteins were ligated to AzRB. Labeled proteins were enriched on NeutrAvidin-agarose and digested on-resin with trypsin; peptides were labeled with tandem mass tag, and analyzed and quantified by nano-liquid chromatography-tandem mass spectrometry on a Thermo Q-Exactive instrument.
Cysteine carbamidomethylation was used as a fixed modification and methionine oxidation and N-terminal acetylation as variable modifications. ‘Trypsin/P’ was chosen as digestion mode enzyme, and up to two missed cleavages were allowed. The ‘match between run’ option was selected, along with ‘unique and razor peptides’ for protein quantification. TMT was set per sample group. […] The false discovery rate was set to 0.01 for peptides and a minimum of 2 unique peptides per protein were required. The mass spectrometry proteomics data have been deposited to the ProteomeXchange Consortium via the PRIDE partner repository with the dataset identifier PXD012722.

[2] = system: NMT (in-cell target engagement, ARL1); assay: Sortase A assay (peptide addition to ARL1), human cell lines
Description: (§1) The homogenate was further disrupted by shearing it three times through a 30G needle. […] Hereafter the reaction was quenched with 5 mM EDTA and stored at −20°C until further analysis.

[3] = Precipitation in growth media
human NMTs = conditions: read-out: In Vitro IC50, Reported, cited from earlier work
[4] = system: N-myristoylation in living cells; conditions: cited from earlier work
[5] = system: NMT within living cells (N-myristoylation); assay: YnMyr metabolic tagging, in-gel fluorescence; conditions: for N-myristoylation in cells (summary of assays): 1 μM IMP-366, 100 nM IMP-1088, 100 μM 2-hydroxymyristic acid, 30 μM D-NMAPPD, 10 μM Tris-DBA palladium, 18 h; for quantification of YnMyr tagging of ten bands: MDA-MB-231 and HeLa, 100 μM 3, 30 μM 4, 10 μM 5
[6] = biological target: T1, recombinant human N-myristoyltransferase 1 (rNMT1) (Homo sapiens, UniProt P30419); assay: Enzymatic HsNMT1 assay (CPM detection of CoA thiol by-product); assay type: biochemical; conditions: for rNMT1 activity: below 300 μM
T1 construct: Full-length HsNMT1 enzyme was produced as previously described; made in house
T1 sequence (P30419 1-496): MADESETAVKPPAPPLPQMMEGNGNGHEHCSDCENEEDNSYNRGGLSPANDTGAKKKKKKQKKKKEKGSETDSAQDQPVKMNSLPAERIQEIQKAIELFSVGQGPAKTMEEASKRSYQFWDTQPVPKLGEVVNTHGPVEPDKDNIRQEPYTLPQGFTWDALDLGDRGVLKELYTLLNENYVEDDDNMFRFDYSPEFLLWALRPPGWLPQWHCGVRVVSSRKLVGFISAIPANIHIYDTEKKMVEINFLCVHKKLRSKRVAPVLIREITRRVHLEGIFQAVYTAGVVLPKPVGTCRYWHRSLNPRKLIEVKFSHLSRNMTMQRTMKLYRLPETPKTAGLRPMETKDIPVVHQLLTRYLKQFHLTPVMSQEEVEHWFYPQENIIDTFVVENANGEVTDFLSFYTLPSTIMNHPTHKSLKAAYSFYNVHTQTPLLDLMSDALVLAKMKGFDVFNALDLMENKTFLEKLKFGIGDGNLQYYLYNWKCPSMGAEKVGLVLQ
Description: After background correction, IC50 values were determined by fitting the four-parametric variable slope function (GraphPad Prism 5.0), with the stated IC50 values being the mean of two independent assays performed in triplicate.

MDA-MB-231 cells = assay: Nuclei counting as a measure for proliferation; assay type: cell-based, human
Description: After 24, 48 or 72 h of exposure, cell viability was evaluated by determination of metabolic activity and counting of cellular nuclei. Metabolic activity was assessed by addition of Cell Titer Blue (Promega), incubation at 37°C and the appropriate percentage of CO2 for 3 h, followed by measuring the absorbance at 490 nm using a PHERAstar (BMG LabTech, Germany). For nuclei counting, cells were fixed with 4% (w/v) paraformaldehyde at room temperature (RT) for 20 min, permeabilised with 0.2% (v/v) Triton X-100 in PBS at RT for 20 min, DNA stained with 1 μg/mL DAPI (Life Technologies, D1306) at RT for 1 h, followed by three washes with PBS. Whole well images for the total number of cells were acquired with an Acumen Cellista (TTP Labtech), using the 405 nm excitation / FL1 (420-500 nm) emission channel. The cell viability was normalised to the negative control (DMSO) and positive control (Staurosporin and puromycin), followed by fitting the four-parametric variable slope function (GraphPad Prism 5.0) to data of quadruplicate experiments.

[7] = Precipitation in rNMT1 buffer, absorbance at 750 nm; assay type: physicochemical; conditions: 15 min at room temperature
Description: Absorbance at 750 nm was determined after 15 min at room temperature.
and 72 h. Mean of quadruplicate measurements, ± SEM.
(E) Nuclei counts of HeLa cells after exposure to 1-5 for 24, 48 and 72 h. Mean of quadruplicate

both NMTs = biological target: both NMTs; parameters: method as in Mousnier et al., 2018; conditions: ref Mousnier et al., 2018; cited from earlier work
[8] = system: lysosomal acid ceramidase; parameters: method as in Raisova et al., 2002; conditions: various cancer cell lines, >5 μM 4; ref Raisova et al., 2002; cited from earlier work
HeLa cells [9] = assay: Cell-cycle distribution by FACS (DNA content, EdU); conditions: 18 h, 30 μM 4, 10 μM 5
[10] = system: NMT (in-cell target engagement, ARL1); assay: Sortase A assay (peptide addition to ARL1), murine cells; assay type: cell-based; conditions: MEF and NIH3T3 cells; 100, 10 and 1 μM 4
Description: as §1

human NMT1 = conditions: cited from earlier work
[11] = system: MDA-MB-231 and HeLa cells; assay: Bright-field microscopy; assay type: cell-based, human; conditions: both cell lines; 18 h; 30 μM 4, 10 μM 5
[12] = system: de novo protein synthesis; assay: L-AHA tagging of de novo protein synthesis; assay type: cell-based, human; conditions: MDA-MB-231 and HeLa; 18 h; 30 μM 4, 10 μM 5
Source text: Cells were subsequently harvested as described before (see Myristic Acid Analogue (YnMyr) Tagging Experiments).

HeLa cells [13] = assay: Apoptosis, active caspase-3 staining by FACS; conditions: 18 h, 30 μM 4, 10 μM 5
Jurkat cells = assay: Metabolic activity (Cell Titer Blue); conditions: Jurkat (suspension); 10 μM 5 for 72 h
A375 melanoma = system: A375 melanoma; parameters: method as in Bhandarkar et al., 2008; conditions: 11 μM 5, ref Bhandarkar et al., 2008; cited from earlier work
NMT2 = conditions: ref Rampoldi et al., 2012; cited from earlier work
[14] = recombinant human NMT1, mean of two independent assays in triplicate, values for 3 and 4 extrapolated, read-out: In Vitro IC50, This Article
[15] = range of concentrations, 24, 48, 72 h

| Compound | hierarchical one-minus Pearson correlation clustering of enrichment of N-myristoylated proteins [1] | N-myristoylation in cells (summary of assays) [5] | quantification of YnMyr tagging of ten bands [5] | rNMT1 activity [6] | IC50 [6, 14] | effect on proliferation (nuclei counts) (MDA-MB-231 cells; [15]) | concentration at which the compound precipitated (absorbance at 750 nm) [7] | depletion of S phase compared with MDA-MB-231 (HeLa cells [9]) | cell morphology [11] | decrease in L-AHA labeling [12] | induction of apoptosis compared with MDA-MB-231 (HeLa cells [13]) | further results |
| --- | --- | --- | --- | --- | --- | --- | --- | --- | --- | --- | --- | --- |
| CCCCCCCCCCCCC(O)C(=O)O (centres unmarked) [Compound 3, 2-hydroxymyristic acid] | do not affect NMT activity | did not inhibit | at most a minor reduction | not reduced | > 300 µM | unaffected | 300 µM |  |  |  |  | NMT inhibition (sortase A) ([2]; Jurkat, HEK293 and NCI-H23 cells, 100, 10 and 1 μM 3): did not inhibit NMT; effect of addition to medium ([3]; 3 at 1 mM, directly or in a mixture with BSA, data not shown): precipitation in the medium and cell death; IC50 (human NMTs; ref Paige et al., 1990): 100 µM; metabolic labeling of cells with [3H]myristate ([4]; 100 μM to 1 mM, ref Vaandrager et al., 1996, Tan et al., 2016): reduce metabolic labeling; N-myristoylation in cells (summary of assays) ([5]; listed as 2-Hydroxymyristate): inactive; N-myristoylation in cells (summary of assays) ([5]; listed as 2-hydroxymyristic acid): unaffected; inhibition of recombinant NMT1 ([6]; 100 μM 3, while soluble): did not inhibit |
| Cc1nn(C)c(C)c1CCOc1c(-c2ccc3c(c2)c(CN(C)C)nn3C)ccc(F)c1F [Compound 2, IMP-1088] | very similar to that of control cells not treated with YnMyr | complete inhibition |  |  |  | only after 48 and 72 h | above 300 μM |  |  |  |  | NMT engagement (sortase A) ([2]; all cell lines tested (panel of nine, incl. murine MEF and NIH3T3)): engaged NMT; IC50 (human NMTs; ref Mousnier et al., 2018): < 0.001 µM; N-myristoylation in cells ([4]; low nanomolar concentrations, ref Mousnier et al., 2018): completely inhibited; N-myristoylation in cells (summary of assays) ([5]; listed as IMP-1088): complete and specific inhibition; concentration for complete inhibition of in-cell N-myristoylation above the IC50 toward recombinant NMT1 ([5]; approximately): 30- to 100 fold; IC50 [6]: 0.00024 µM; Kd (both NMTs): ~0.0002 µM |
| CCCCCCCCCCCCCC(=O)N[C@H](CO)[C@H](O)c1ccc([N+](=O)[O-])cc1 [Compound 4, D-NMAPPD] | do not affect NMT activity | unaffected | at most a minor reduction | not reduced | > 300 µM |  | 300 µM | correspondingly lower depletion of S phase | more rounded apoptotic cells | 40%–80% | less induction of apoptosis | increase of ceramide concentrations [8]: up to 12 fold; NMT inhibition (sortase A) ([2]; PC-3 cells, 100, 10 and 1 μM 4): no effect; NMT inhibition (sortase A) [10]: no effect; IC50 ([4]; ref Kim et al., 2017, read-out: IC50, capacity to reduce N-myristoylation in living cells): ~15 µM; IC50 (human NMT1; ref Kim et al., 2017, read-out: biochemical human NMT1 IC50): 78 µM; effect on proliferation (nuclei counts) (MDA-MB-231 cells; 30 μM 4, 24, 48, 72 h): hindered proliferation equally at all time points |
| O=C(/C=C/c1ccccc1)/C=C/c1ccccc1.O=C(/C=C/c1ccccc1)/C=C/c1ccccc1.O=C(/C=C/c1ccccc1)/C=C/c1ccccc1.[Pd].[Pd] [Compound 5, Tris (dibenzylideneacetone) di-palladium] | do not affect NMT activity | unaffected; also recorded: does not inhibit NMT in cells | at most a minor reduction |  | 4.2 µM |  | 10 µM | correspondingly lower depletion of S phase | exhibited this phenotype | 40%–80% | less induction of apoptosis | NMT inhibition (sortase A) and cytotoxicity ([2]; A375, NCI-H929 and PANC1 cells, 10, 1 and 0.1 μM 5): cytotoxic in the absence NMT inhibition; effect on metabolic activity (Jurkat cells): no effect; precipitation in the media ([3]; cell culture media, black rod-shaped crystals): precipitated in the media; concentrations at which precipitation in growth media was most notable ([3]; growth media of multiple cell lines): over 1 μM; IC50 (human NMTs; ref Bhandarkar et al., 2008): 0.5 to 1.3 µM; NMT1 inhibition (claimed selectivity NMT1 vs NMT2) (human NMT1; ref Rampoldi et al., 2012): 0.5 µM; decrease in cell count (A375 melanoma): 96%; NMT2 inhibition (claimed selectivity NMT1 vs NMT2) (NMT2): 1.3 µM; IC50 (MDA-MB-231 cells; time- and concentration-dependent, 24, 48, 72 h, read-out: IC50 of proliferation (nuclei counts)): ~0.3 µM |
